Laboratory results: patent publication US5491220A, “Surface loop structural analogues of fibroblast growth factors” (Yeda Research and Development Co., Ltd., priority 1994, dated 1996)

Legend:
[1] = test system: FGF receptor on BHK cells; experiment: Competition for 125I-FGF-2 binding to baby hamster kidney (BHK) cells; settings: 50 pM 125I-FGF-2; compared with FGF-2
Protocol: FGF-2LI and FGF-2LA are tested for their capacity to compete for the binding of ^125 I-FGF-2 (Amersham Corp.) to baby hamster kidney (BHK) cells, which express high numbers of FGF receptor. The assay employed is described by Moscatelli (J. Cell. Physiol. 131: 123-130 (1987)). Briefly stated, BHK cells plated on 24-well plates are incubated with 50 pM ^125 I-FGF-2 with serial dilutions of unlabelled FGF-2, FGF-2LI or FGF-2LA loop mutants at room temperature for 1 hour or at 4° C. for 2 hours. The cells are then incubated at 4° C. for 30 minutes, washed twice with phosphate-buffered saline and treated with 20 mM HEPES (N-2-hydroxyethyl-piperazine-N'-2-ethanesulfonic acid), pH 7.5, containing 2M NaCl to remove ^125 I-FGF-2 bound to low affinity heparin sulfate binding sites. Receptor bound ^125 I-FGF-2 is recovered by treatment of the cells with 0.5% Triton X-100 in 0.1M sodium phosphate, pH 8, and counted in a γ-counter. Assays are conducted in duplicate.

[2] = test system: cell-associated urokinase-type plasminogen activator (uPA) activity in ABAE cells; experiment: Urokinase-type plasminogen activator induction in ABAE cells; assay type: cell-based, bovine; settings: 24 hours, compared with FGF-2
Protocol: Urokinase-type plasminogen activator induction by the FGF mutants is evaluated. Adult bovine aortic endothelial (ABAE) cells are seeded at 20,000 cells/well in 96-well plates and maintained in DMEM containing 10% calf serum (Hyclone, Logan, Utah) supplemented with penicillin (100 units/ml), streptomycin (100 μg/ml) and L-glutamine (2 mM) and different concentrations of FGF-2 or mutants. After 24 hours, the cells are washed with phosphate-buffered saline and lysed in 60 mM Tris-HCl, pH 8.5, containing 0.05% Triton® X-100. Cell-associated urokinase-type plasminogen activator (uPA) activity is measured as described by Presta, et al., cited above, using the plasmin chromogenic substrate D-norleucyl-hexahydrotyrosyllysine p-nitroanilide acetate (American Diagnostics, Greenwich, Conn.). Cell-associated protein concentrations are determined using Coomassie blue binding to protein. The results are plotted in FIG. 5.

[3] = test system: soluble FGF receptor 1 (FGFR-1; flg); experiment: Competition binding to soluble FGFR1 (displacement of 125I-FGF-2); design: species or system murine; settings: 200 ng/ml heparin
Protocol: (§1) Binding of FGF proteins to different FGF receptors are determined in this example, by measuring the degree of competition for binding to different types of FGF-receptor proteins between a radioiodinated FGF protein and various unlabelled proteins, or by the direct binding of radioiodinated FGF's to various receptor proteins. Binding studies are confirmed by chemical cross-linking of the radioiodinated FGF to soluble receptors in the presence and absence of excess unlabelled FGF.
(§2) Soluble FGF receptor proteins are constructed by cloning of the extracellular region of murine FGF receptor 1 (FGFR-1; flg), FGF receptor 2 (FGFR-2; bek) or the KGF receptor (FGFR(IIIb); K-sam) into the alkaline phosphatase-tag expression vector, which encodes for a secreted form of placental alkaline phosphatase (AP). The FGF receptor alkaline phosphatase (FRAP) plasmids are cotransfected into NIH 3T3 cells by electroporation with a selectable neomycin resistance gene. Clonies are selected in G418 (600 μg/ml) and screened for secreted AP enzyme activity in the conditioned medium. Clones of each receptor which produced a high level of AP activity (2 to 4 A405 units/min/ml) are then used to produce conditioned medium for binding assays.
(§3) Components of the soluble receptor binding reaction mixture include FRAP-conditioned medium (0.24 OD units/min), 2 ng/ml^125 I-FGFs and 200 ng/ml heparin. The FGF:heparin:FRAP terniary complex is immunoprecipitated with 20 μl of a 1:1 slurry of anti-AP monoclonal antibodies coupled to protein A Sepharose®. All components are mixed at room temperature. The total volume is adjusted to 200 μl by addition of DMEM containing 0.1% bovine serum albumin. Binding is allowed to proceed for 1 to 2 hours at 24° C., after which time bound receptor complex or the ligand is recovered by centrifugation at 4° C. (10 s at 2,000×g). The pelleted material is washed twice with 500 μl of an ice cold buffer containing HEPES (20 mM), NaCl (150 mM), glycerol (10%) and Triton® X-100 (1%). ^125 I-FGF binding is quantitated by counting of the samples in a gamma counter (LKB). Alternatively, AP enzyme activity of the FRAP protein is determined by transferring the FRAP receptor bound to […] to a flat-bottom microtiter plate in a volume of 50 μl of PBS. The reaction is initiated by addition of substrate (50 μl of 2× solution of AP assay buffer containing 2M diethanoiamine, 1 mM MgCl2, 20 mM homoarginine and 12 mM p-nitrophenyl phosphate). The reaction is followed at room temperature at 405 nm in a kinetic microplate reader.

[4] = test system: FGFR2(IIIb) (FGF-7 or KGF receptor); experiment: Competition binding to soluble FGFR2(IIIb) (displacement of 125I-FGF-7); design: species or system murine
Protocol: as §1, §2, §3

[5] = test system: bovine vascular endothelial cells derived from adult aortic arch; experiment: Mitogenic activity, endothelial cell proliferation assay; assay type: cell-based; settings: 5 days in culture
Protocol: The mitogenic activity of FGF-2, FGF-2LI and FGF-2LA are determined using bovine vascular endothelial cells derived from adult aortic arch as previously described (Gospardarowicz, D., et al., Proc. Nat. Acad. Sci. 81: 6963-6967 (1984)). Briefly, cells are seeded at an initial density of 0.8×10^4 cells per 24-well plate in 0.5 ml Dulbecco's modified Eagle's medium (DMEM) containing 10% calf serum (Hyclone, Logan, Utah) supplemented with penicillin (100 units/ml), streptomycin (100 ug/ml) and L-glutamine (2 mM). Two hours after plating, 20 ul aliquots of serial dilutions of FGF-2 and the mutants in DMEM are added. Inhibition of FGF-2-stimulated growth was determined at a fixed concentration of FGF-2, while that of the mutant proteins is varied. After 5 days in culture, duplicate plates are trypsinized and cell densities determined by cell counting in a Coulter counter. Determinations are conducted in duplicate.

[6] = test system: FGF receptor type 1 (FGFR1); experiment: Competition binding to FGF-receptor type 1 on NIH 3T3 cells; settings: compared with FGF-2

Binding to soluble FGFR1 (competition with 125I-FGF-2) [3]	Binding to FGFR2(IIIb), times less than that of FGF-7 or FGF-1 [4]	Binding to soluble FGFR2(IIIb) (competition with 125I-FGF-7) ([4]; 200 ng/ml heparin)	Substance	Capacity to compete with 125I-FGF-2 binding to FGF receptors on BHK cells [1]	Capability to induce urokinase-type plasminogen activator [2]	Mitogenic potency compared with wild-type factor [5]	Competition binding curve to FGF receptor type 1 on NIH 3T3 cells [6]	Mitogenic potency, times less potent than FGF-2 [5] [times]
bind equally well	about 5 times	–	FGF-2LA: human FGF-2 with loop residues 118-122 replaced by Lys-Lys-His-Ala-Glu-Lys-His from bovine FGF-1 (SEQ ID NO 16) (KKHAEKH; printed: Lys-Lys-His-Ala-Glu-Lys-His)	similar	significantly reduced	as potent as the wild-type factor	identical to that for FGF-2	–
bind equally well	–	do not bind	FGF-2LI: human FGF-2 with loop residues 118-122 replaced by Ala-Gln-Phe-Pro-Asn from human interleukin-1β (SEQ ID NO 15)	similar	significantly reduced	–	identical to that for FGF-2	5 to 10
